# According to article PMC9127750, “Structure-based design of CDC42 effector interaction inhibitors for the treatment of cancer” (Cell reports, 2022):
# “And” between values parts separate entries of the source, which are not always exact repeats. Equal values may be shown once.
# System: WM3248 melanoma cells, 486 antibodies
# Assay: Reverse phase protein arrays (RPPA)
# Assay type: cell-based, Human
# Details: 10 uM, single replicates
# Text: Pellets were snap frozen in liquid nitrogen and shipped to MD Anderson Cancer Center core RPPA facility for RPPA analysis (Table S5). Three biological replicates for each sample were generated.
# Nomenclatures on the RPPA heatmaps: name_of_antibody.species_of_antibody.status_of_antibody. V - antibody validated; C - validation of antibody in progress; Q - antibody nonspecific; E – under evaluation; antibodies raised in M - mouse, G - goat, R - rabbit, or T - rat.
structure (smiles),measurement,value
"CN(C)c1cccc(Nc2cc(-c3ccccc3)nc(C3CCNCC3)n2)c1 [ARN22089, N1,N1-dimethyl-N3-(6-phenyl-2-(piperidin-4-yl)pyrimidin-4-yl)benzene-1,3-diamine]",RPPA PDHA1.R.V,0.868 and 1.050
same,RPPA PDHK1.R.C,0.847 and 0.989 and 1.019
same,RPPA PDK1.R.V,1.007 and 1.121 and 1.006
same,RPPA PDK1_pS241.R.V,0.935 and 0.909 and 0.981
same,RPPA PEA.15.R.V,0.898 and 0.934 (2×)
same,RPPA PEA.15_pS116.R.V,0.987
same,RPPA PERK.R.V,0.972 and 0.874
same,RPPA PGM1.R.V,1.007 and 0.983 and 1.004
same,RPPA PHGDH.R.C,0.889 and 1.016
same,RPPA PHLPP.R.V,1.515 and 0.856 and 0.877
same,RPPA PI3K.p85.R.C,1.113 and 1.033
same,RPPA PI3K.p110.a.R.C,0.828 and 0.921 and 0.963
same,RPPA PI3K.p110.b.M.C,0.981 and 0.937
same,RPPA PKA.a.R.V,1.016 and 0.756 and 0.860
same,RPPA PKC.a.b.II_pT638_T641.R.V,0.761 and 0.940 and 1.029
same,RPPA PKC.b.II_pS660.R.V,0.960 and 1.055
same,RPPA PKCa.R.V,1.576 and 0.715 and 0.684
same,RPPA PKM2.R.C,0.940 and 0.831 and 1.047
same,RPPA PLC.gamma1.R.V,1.302 and 0.921 and 1.027
same,RPPA PLC.gamma1_pS1248.R.V,1.246 and 0.852 and 0.899
same,RPPA PLC.gamma2_pY759.R.V,1.055 and 1.008 and 1.052
same,RPPA PLK1.R.C,1.052 and 0.570
same,RPPA PMS2.R.V,1.013 and 1.061 and 1.035
same,RPPA PR.R.V,1.051 and 1.057 and 1.083
same,RPPA PRAS40.M.C,1.053 and 1.125 and 0.970
same,RPPA PRAS40_pT246.R.V,0.997 and 0.945 and 0.929
same,RPPA PRC1_pT481.R.C,1.013
same,RPPA PREX1.R.V,0.847 and 0.880 and 1.018
same,RPPA PTEN.R.V,0.967 and 0.919
same,RPPA PTPN12.R.V,0.922 and 0.923
same,RPPA PYGB.R.V,1.000 and 1.018
same,RPPA PYGM.M.C,0.933 and 0.899 and 1.244
same,RPPA Patched.R.C,0.891 and 1.022 and 1.001
same,RPPA Paxillin.R.C,0.651 and 0.874 and 0.967
same,RPPA Pdcd4.R.C,1.032 and 0.964 and 0.935
same,RPPA Porin.M.V,0.986 and 1.054 and 1.019
same,RPPA Puma.R.C,1.032 and 0.898 and 0.973
same,RPPA Pyk2_pY402.R.C,0.958 and 0.968 and 0.955
same,RPPA RBM15.R.V,0.860 and 0.890 and 0.867
same,RPPA RIP3.R.C,0.858 and 0.945
same,RPPA RIP.R.C,0.855 and 1.003
same,RPPA RPA32.R.V,1.116 and 1.009 and 0.985
same,RPPA RPA32_pS4_S8.R.C,1.499 and 0.874 and 0.876
same,RPPA RRM1.R.C,0.796
same,RPPA RRM2.R.C,0.716 and 0.950 and 1.085
same,RPPA RSK1.R.V,1.235 and 0.841
same,RPPA RSK.R.C,1.016 and 0.831 and 0.880
same,RPPA Rab11.R.C,0.965 and 1.012 and 0.993
same,RPPA Rab25.R.V,0.970 and 0.991 and 0.975
same,RPPA Rad17_pS645.R.V,1.158
same,RPPA Rad23A.R.C,0.785 and 0.923 and 1.052
same,RPPA Rad50.R.V,1.047 and 1.001 and 0.925
same,RPPA Rad51.R.C,1.141
same,RPPA Raptor.R.V,0.898 and 0.967 and 0.952
same,RPPA Rb.M.Q,1.031
same,RPPA Rb_pS807_S811.R.V,0.993 and 0.916 and 0.946
same,RPPA Rheb.M.C,1.005
same,RPPA Rictor.R.C,0.984 and 0.977 and 0.904
same,RPPA Rictor_pT1135.R.V,1.006 and 1.049 and 1.026
same,RPPA S6.M.V,1.029 and 0.890 and 0.873
same,RPPA S6_pS235_S236.R.V,0.665 and 0.702 and 0.771
same,RPPA S6_pS240_S244.R.V,1.130 and 0.761 and 0.978
same,RPPA SCD.M.V,0.998 and 1.016
same,RPPA SDHA.R.V,0.885 and 1.085 and 0.936
same,RPPA SF2.R.V,0.975 and 1.048 and 0.992
same,RPPA SFRP1.R.V,0.871 and 0.955
same,RPPA SGK1.R.V,1.123 and 0.868
same,RPPA SGK3.R.V,0.999 and 1.114 and 0.994
same,RPPA SHP2.R.V,1.022 and 1.001 and 0.989
same,RPPA SHP.2_pY542.R.C,0.948 and 0.890 and 0.849
same,RPPA SIRPαR.V,1.018 and 0.987 and 1.021
same,RPPA SLC1A5.R.C,0.918 and 0.893 and 1.114
same,RPPA SOD1.M.V,1.011 and 1.084 and 0.999
same,RPPA SOD2.R.V,1.111 and 1.200 and 1.033
same,RPPA SOX7.R.V,1.014 and 0.995
same,RPPA STING.R.V,0.837 and 0.985 and 0.890
same,RPPA Shc_pY317.R.C,0.828 and 3.472 and 1.241
same,RPPA Slfn11.G.C,0.855 and 0.895
same,RPPA Smac.M.Q,0.941 and 1.118 and 0.934
same,RPPA Smad1.R.V,0.926 and 1.050
same,RPPA Smad3.R.V,0.971 and 0.982 (2×)
same,RPPA Smad4.R.V,1.125 and 1.111 and 0.988
same,RPPA Snail.M.Q,0.848 and 1.076 and 1.006
same,RPPA Sox2.R.V,0.994 and 0.995 and 0.973
same,RPPA Sox17.R.V,1.081 and 0.902
same,RPPA Src.M.V,0.986 and 1.228 and 1.023
same,RPPA Src_pY416.R.V,1.112 and 0.914
same,RPPA Src_pY527.R.V,1.187 and 0.891 and 0.646
same,RPPA Stat1_pY701.R.V,1.116 and 1.000 and 0.989
same,RPPA Stat3.R.C,0.928 and 0.967 and 1.021
same,RPPA Stat3_pY705.R.C,1.145 and 0.998 and 0.863
same,RPPA Stat5a.R.V,1.136 and 0.906 and 0.832
same,RPPA Stathmin.1.R.V,0.796 and 1.056 and 1.053
same,RPPA Syk.M.V,0.989 and 1.109 and 1.102
same,RPPA Synaptophysin.R.C,1.199 and 0.991
same,RPPA TAZ.R.V,0.707 and 1.122 and 1.046
same,RPPA TEAD.R.C,0.724 and 1.098 and 1.080
same,RPPA TFAM.R.V,0.916 and 0.953 and 0.872
same,RPPA TFRC.R.V,0.933 and 0.837 and 1.007
same,RPPA TIGAR.R.V,1.010 and 0.954 and 0.970
same,RPPA TRAP1.M.V,0.985
same,RPPA TRIM24.R.C,1.099 and 1.139 and 0.970
same,RPPA TRIM25.R.C,0.787 and 0.889 and 0.933
same,RPPA TRIP13.R.V,1.107 and 0.967 and 1.005
same,RPPA Tau.M.C,1.121 and 1.140
same,RPPA Transglutaminase.M.V,0.953 and 1.132 and 1.561
same,RPPA level HLA.DQA1.R.V,0.942 and 1.249 and 0.908
same,RPPA level HLA.DR.DP.DQ.DX.R.C,0.965 and 0.939
same,RPPA level HMHA1.R.V,0.904 and 1.030 and 0.992
same,RPPA level HNRNPK.R.V,1.000 and 1.157 and 1.048
same,RPPA level HSP27.M.C,1.035 and 0.965
same,RPPA level HSP27_pS82.R.V,0.973 and 1.006 and 0.985
same,RPPA level HSP60.R.V,0.817 and 0.961
same,RPPA level HSP70.R.C,0.863 and 0.990 and 0.973
same,RPPA level Hexokinase.I.R.C,1.158 and 0.954
same,RPPA level Hexokinase.II.R.V,1.125 and 0.921 and 0.919
same,RPPA level Hif.1αR.C,1.247 and 1.014 and 0.671
same,RPPA level Histone.H3.R.V,0.930 and 0.956 and 0.776
same,RPPA level Histone.H3_pS10.R.V,1.200 and 0.894 and 1.027
same,RPPA level IDO.R.C,0.882 and 1.060
same,RPPA level IGF1R_pY1135_Y1136.R.V,0.904 and 0.968 and 0.956
same,RPPA level IGFBP2.R.V,0.540 and 0.765
same,RPPA level IGFBP3.M.V,0.727 and 1.079 and 1.122
same,RPPA level IGFRb.R.C,0.931 and 1.005 and 0.850
same,RPPA level IL.6.R.C,0.856 and 0.994 and 1.019
same,RPPA level IMP3.R.C,1.033 and 1.014 and 0.956
same,RPPA level INPP4b.R.C,0.980 and 0.827
same,RPPA level IR.b.R.C,0.942 and 1.158 and 1.047
same,RPPA level IRF.1.R.V,0.733 and 0.989 and 0.863
same,RPPA level IRF.3.R.V,1.005 and 1.049 and 1.057
same,RPPA level IRS1.R.V,0.956 and 0.975 and 0.990
same,RPPA level IRS2.R.C,1.250 and 0.922 and 0.822
same,RPPA level JAB1.M.C,0.937 and 1.033
same,RPPA level JNK2.R.V,0.765 and 3.367 and 1.426
same,RPPA level JNK_pT183_Y185.R.C,0.982 and 0.932 and 1.030
same,RPPA level Jagged1.R.V,0.877 and 1.048
same,RPPA level Jak2.R.V,0.931 (2×) and 1.019
same,RPPA level KAP1.R.V,1.035 and 0.844 and 0.861
same,RPPA level KEAP1.R.V,1.174 and 0.839
same,RPPA level LAD1.R.V,0.772 and 1.056 and 1.078
same,RPPA level LC3A.B.R.C,1.052 and 0.957 and 0.853
same,RPPA level LCN2.R.V,2.061 and 0.840 and 0.854
same,RPPA level LDHA.R.C,0.770 and 1.150
same,RPPA level LRP6_pS1490.R.V,0.906 and 0.988 and 0.894
same,RPPA level Lasu1.R.V,1.033 and 1.132 and 1.052
same,RPPA level Lck.R.V,0.988 and 0.991 and 0.942
same,RPPA level Lyn.R.V,1.113 and 1.221 and 0.942
same,RPPA level MACC1.R.V,1.081 and 1.061 and 1.005
same,RPPA level MAPK_pT202_Y204.R.C,0.770 and 0.851 and 1.246
same,RPPA level MCT4.R.V,0.673 and 0.768 and 1.020
same,RPPA level MDM2_pS166.R.V,1.142 and 0.902
same,RPPA level MEK1.R.V,2.774 and 0.771 and 0.759
same,RPPA level MEK1_pS217_S221.R.V,1.065 and 0.907 and 1.005
same,RPPA level MEK2.R.V,0.928 and 1.010 and 0.996
same,RPPA level MERIT40.R.C,0.985
same,RPPA level MERIT40_pS29.R.V,0.918 and 1.049
same,RPPA level METTL3.R.V,1.128 and 1.097 and 0.930
same,RPPA level MIF.R.C,1.023 and 1.117 and 1.048
same,RPPA level MIG6.R.V,0.921 and 1.139 and 1.007
same,RPPA level MITF.R.V,1.105 and 1.065 and 0.952
same,RPPA level MLH1.M.V,1.000 and 0.967
same,RPPA level MLKL.R.V,0.819 and 0.881 and 1.048
same,RPPA level MMP2.R.V,1.026 and 0.968 and 0.958
